In PubChem BioAssay AID270 (DTP/NCI, 2004):
Inconclusive results are not listed.

System: BDF1 mice, s.c. Lewis lung carcinoma, T/C %
Assay: NCI In Vivo Anticancer Drug Screen. Data for tumor model Lewis Lung Carcinoma (subcutaneous) in B6D2F1 (BDF1) mice
Procedure, shortened: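 The value reflects a ratio in which the treated cohort's survival time or tumour size is compared against mice receiving only vehicle.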

Compound: C=C[C@@]1(C)C=C2CC[C@@H]3[C@](C)(CCC[C@@]3(C)C(=O)O)[C@H]2CC1
- T/C (endpoint: mean tumor weight, dose: 25.0 mg/kg/injection, schedule: Q01DX011 (ip), vehicle: saline, higher = larger tumour): 95 % of control
- T/C (endpoint: mean tumor weight, dose: 50.0 mg/kg/injection, schedule: Q01DX011 (ip), vehicle: saline, higher = larger tumour): 88 % of control
- T/C (endpoint: mean tumor weight, dose: 100.0 mg/kg/injection, schedule: Q01DX011 (ip), vehicle: saline, higher = larger tumour): 84 % of control
- T/C (endpoint: mean tumor weight, dose: 200.0 mg/kg/injection, schedule: Q01DX011 (ip), vehicle: saline, higher = larger tumour): 95 % of control

Compound: COc1cc(NC(=O)N(CCCl)N=O)cc(OC)c1OC
- T/C (endpoint: median survival time, dose: 3.12 mg/kg/injection, schedule: Q01DX009 (ip), vehicle: other, higher = longer survival): 103 % of control
- T/C (endpoint: median survival time, dose: 6.25 mg/kg/injection, schedule: Q01DX009 (ip), vehicle: other, higher = longer survival): 102 % of control
- T/C (endpoint: median survival time, dose: 12.5 mg/kg/injection, schedule: Q01DX009 (ip), vehicle: other, higher = longer survival): 101 % of control
- T/C (endpoint: median survival time, dose: 25.0 mg/kg/injection, schedule: Q01DX009 (ip), vehicle: other, higher = longer survival): 94 % of control
- T/C (endpoint: median survival time, dose: 50.0 mg/kg/injection, schedule: Q01DX009 (ip), vehicle: other, higher = longer survival): 99 % of control

Compound: CO/[N+]([O-])=C\C(=O)N/C=C/C(=O)O
- T/C (endpoint: mean tumor weight, dose: 22.0 mg/kg/injection, schedule: Q01DX011 (ip), vehicle: carboxymethylcellulose (CMC), higher = larger tumour): 80 % of control
- T/C (endpoint: mean tumor weight, dose: 33.0 mg/kg/injection, schedule: Q01DX011 (ip), vehicle: carboxymethylcellulose (CMC), higher = larger tumour): 57 % of control

Compound: CC1OC(Oc2c(-c3ccc(O)c(O)c3)oc3cc(O)cc(O)c3c2=O)C(O)C(O)C1O (stereo unspecified)
- T/C (endpoint: mean tumor weight, dose: 62.5 mg/kg/injection, schedule: Q01DX011 (ip), vehicle: saline, higher = larger tumour): 92 % of control
- T/C (endpoint: mean tumor weight, dose: 125.0 mg/kg/injection, schedule: Q01DX011 (ip), vehicle: saline, higher = larger tumour): 93 % of control
- T/C (endpoint: mean tumor weight, dose: 250.0 mg/kg/injection, schedule: Q01DX011 (ip), vehicle: saline, higher = larger tumour): 99 % of control
- T/C (endpoint: mean tumor weight, dose: 500.0 mg/kg/injection, schedule: Q01DX011 (ip), vehicle: saline, higher = larger tumour): 51 % of control

Compound: Nc1cc2nc3ccccc3sc-2cc1=O
- T/C (endpoint: median survival time, dose: 50.0 mg/kg/injection, schedule: Q01DX009 (ip), vehicle: saline with Tween-80, higher = longer survival): 104 % of control
- T/C (endpoint: median survival time, dose: 100.0 mg/kg/injection, schedule: Q01DX009 (ip), vehicle: saline with Tween-80, higher = longer survival): 90 % of control

Compound: O=[N+]([O-])c1ccc(/C=N/c2ncc(Br)s2)o1
- T/C (endpoint: median survival time, dose: 6.25 mg/kg/injection, schedule: Q01DX009 (ip), vehicle: Klucel (hydroxypropylcellulose) (HPC), higher = longer survival): 89 % of control
- T/C (endpoint: median survival time, dose: 12.5 mg/kg/injection, schedule: Q01DX009 (ip), vehicle: Klucel (hydroxypropylcellulose) (HPC), higher = longer survival): 109 % of control

Compound: N#C/C(=C\c1ccncc1)c1csc2ccccc12
- T/C (endpoint: median survival time, dose: 50.0 mg/kg/injection, schedule: Q01DX009 (ip), vehicle: Klucel (hydroxypropylcellulose) (HPC), higher = longer survival): 119 % of control
- T/C (endpoint: median survival time, dose: 100.0 mg/kg/injection, schedule: Q01DX009 (ip), vehicle: Klucel (hydroxypropylcellulose) (HPC), higher = longer survival): 97 % of control
- T/C (endpoint: median survival time, dose: 400.0 mg/kg/injection, schedule: Q01DX009 (ip), vehicle: Klucel (hydroxypropylcellulose) (HPC), higher = longer survival): 110 % of control

Compound: NNc1nncc2ccccc12
- T/C (endpoint: mean tumor weight, dose: 13.0 mg/kg/injection, schedule: Q01DX011 (ip), vehicle: carboxymethylcellulose (CMC), higher = larger tumour): 111 % of control
- T/C (endpoint: mean tumor weight, dose: 20.0 mg/kg/injection, schedule: Q01DX011 (ip), vehicle: carboxymethylcellulose (CMC), higher = larger tumour): 87 % of control
- T/C (endpoint: mean tumor weight, dose: 30.0 mg/kg/injection, schedule: Q01DX011 (ip), vehicle: carboxymethylcellulose (CMC), higher = larger tumour): 110 % of control

Compound: O=C(O)CC(NC(=O)CP(=O)(O)O)C(=O)O.[NH-]C1CCCCC1[NH-].[Pt+2] (stereo unspecified)
- T/C (endpoint: median survival time, dose: 2.0 mg/kg/injection, schedule: Q01DX009 (ip), vehicle: other, higher = longer survival): 90 % of control
- T/C (endpoint: median survival time, dose: 4.0 mg/kg/injection, schedule: Q01DX009 (ip), vehicle: other, higher = longer survival): 92 % of control
- T/C (endpoint: median survival time, dose: 6.0 mg/kg/injection, schedule: Q01DX009 (ip), vehicle: other, higher = longer survival): 95 % of control
- T/C (endpoint: median survival time, dose: 6.0 mg/kg/injection, schedule: Q04DX003 (ip), vehicle: other, higher = longer survival): 102 % of control
- T/C (endpoint: median survival time, dose: 8.0 mg/kg/injection, schedule: Q01DX009 (ip), vehicle: other, higher = longer survival): 96 % of control
- T/C (endpoint: median survival time, dose: 12.0 mg/kg/injection, schedule: Q04DX003 (ip), vehicle: other, higher = longer survival): 100 % of control
- T/C (endpoint: median survival time, dose: 18.0 mg/kg/injection, schedule: Q04DX003 (ip), vehicle: other, higher = longer survival): 88 % of control
- T/C (endpoint: median survival time, dose: 24.0 mg/kg/injection, schedule: Q04DX003 (ip), vehicle: other, higher = longer survival): 102 % of control

Compound: O=NN(CCCl)C(=O)Nc1ccc2[nH]c3ccccc3c2c1
- T/C (endpoint: median survival time, dose: 4.0 mg/kg/injection, schedule: Q01DX009 (ip), vehicle: Klucel (hydroxypropylcellulose) (HPC), higher = longer survival): 119 % of control
- T/C (endpoint: median survival time, dose: 8.12 mg/kg/injection, schedule: Q01DX009 (ip), vehicle: Klucel (hydroxypropylcellulose) (HPC), higher = longer survival): 110 % of control
- T/C (endpoint: median survival time, dose: 32.5 mg/kg/injection, schedule: Q01DX009 (ip), vehicle: Klucel (hydroxypropylcellulose) (HPC), higher = longer survival): 97 % of control
